In the first assay the target is T1, human glucagon receptor (Homo sapiens, UniProt P47871).
T1 construct: expressed in transfected cells; host or cells: BHK (baby hamster kidney) cells
T1 sequence (P47871 26-477): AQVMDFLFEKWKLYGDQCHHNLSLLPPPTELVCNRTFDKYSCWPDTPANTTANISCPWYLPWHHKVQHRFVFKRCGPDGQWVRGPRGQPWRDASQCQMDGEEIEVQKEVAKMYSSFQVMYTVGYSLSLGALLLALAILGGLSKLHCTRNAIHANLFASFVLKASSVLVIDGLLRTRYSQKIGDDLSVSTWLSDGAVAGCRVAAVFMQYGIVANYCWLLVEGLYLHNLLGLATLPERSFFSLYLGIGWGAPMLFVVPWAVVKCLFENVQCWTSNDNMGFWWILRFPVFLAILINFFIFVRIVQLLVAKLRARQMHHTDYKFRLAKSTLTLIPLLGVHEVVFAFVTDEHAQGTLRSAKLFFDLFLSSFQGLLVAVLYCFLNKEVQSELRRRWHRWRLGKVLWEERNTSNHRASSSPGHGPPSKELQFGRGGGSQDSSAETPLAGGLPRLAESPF
The assay can be described thus: Glucagon Binding Assay (III). As to conditions: BHK cell membranes, WGA SPA beads, 125I-glucagon; read-out: Glu Bd Assay (III) IC50. The essentials: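 Membranes from BHK cells transfected with the human receptor, prepared at 4 °C, were used in a WGA-bead scintillation proximity binding format. Plates were shaken for 4 hours, left to settle 8–48 hours and then counted. Non-specific binding was defined with 500 nM glucagon.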
As for `CSc1cccc(O)c1C(=O)N(Cc1ccc(C(=O)Nc2nn[nH]n2)cc1)c1ccc(C2CCCCC2)cc1` [Example 482, 4-{[(4-Cyclohexylphenyl)-(2-hydroxy-6-methylsulfanylbenzoyl)amino]methyl}-N-(2H-tetrazol-5-yl)benzamide], the IC50 was determined as 302 nM. `O=C(Nc1nn[nH]n1)c1ccc(CN(C(=O)Nc2ccc(SC(F)(F)F)cc2)c2ccc(C3CCCCC3)cc2)cc1` [Example 301, 4-[1-(4-Cyclohexylphenyl)-3-(4-trifluoromethylsulfanylphenyl)ureidomethyl]-N-(2H-tetrazol-5-yl)benzamide]: the IC50 was found to be 35 nM.

In the case of `CC(C)c1ccc(NC(=O)N(CCc2ccc(Cl)cc2)Cc2ccc(C(=O)NCCC(=O)O)cc2)cc1` [Example 52, 3-{4-[1-[2-(4-Chlorophenyl)ethyl]-3-(4-isopropylphenyl)ureidomethyl]benzoylamino}propionic acid], the IC50 worked out at 383 nM. For `O=C(O)CCNC(=O)c1ccc(CN(C(=O)NCc2ccccc2-c2ccccc2)[C@H]2CC[C@H](C3CCCCC3)CC2)cc1` [Example 391], the IC50 was 21 nM. On to `CC(C)(C)C1CCC(N(Cc2ccc(C(=O)Nc3nn[nH]n3)cc2)C(=O)Nc2ccc(OC(F)(F)F)c(S(C)(=O)=O)c2)CC1` (stereo not drawn) [Example 313, 4-[1-(4-tert-Butylcyclohexyl)-3-(3-methylsulfonyl-4-trifluoromethoxyphenyl)ureidomethyl]-N-(2H-tetrazol-5-yl)benzamide], for which the IC50 amounted to 18 nM. On to `CCCCNC(=O)c1cccc(NC(=O)N(Cc2ccc(C(=O)Nc3nn[nH]n3)cc2)c2ccc(C3CCCCC3)cc2)c1` [Example 465, N-Butyl-3-{3-(4-cyclohexylphenyl)-3-[4-(2H-tetrazol-5-ylcarbamoyl)benzyl]ureido}benzamide], for which the IC50 is 606 nM. Same read-out and setting: the same measure for `CCCCOc1ccc(NC(=O)N(Cc2ccc(C(=O)Nc3nn[nH]n3)cc2)c2ccc(C3CCCCC3)cc2)cc1S(C)(=O)=O` [Example 368, 4-[3-(4-Butoxy-3-methylsulfonylphenyl)-1-(4-cyclohexylphenyl)ureidomethyl]-N-(2H-tetrazol-5-yl)benzamide]: 37 nM; for `CC(C)(C)C1CCC(N(Cc2ccc(C(=O)Nc3nn[nH]n3)cc2)C(=O)Nc2cccc(S(C)(=O)=O)c2)CC1` (stereo not drawn) [Example 445, 4-[1-(4-tert-Butylcyclohexyl)-3-(3-methylsulfonylphenyl)ureidomethyl]-N-(2H-tetrazol-5-yl)benzamide]: 204 nM. Consider `CSc1ccc(NC(=O)N(Cc2ccc(C(=O)Nc3nn[nH]n3)cc2)c2ccc(C3CCCCC3)cc2)cc1` [Example 298, 4-[1-(4-Cyclohexylphenyl)-3-(4-methylsulfanylphenyl)ureidomethyl]-N-(2H-tetrazol-5-yl)benzamide], for which the IC50 worked out at 38 nM. Still for that read-out and setting: the same measure for `O=C(O)CCNC(=O)c1ccc(CN(C(=O)Nc2ccc(OC(F)(F)F)cc2)[C@H]2CC[C@H](OC(=O)Nc3ccc(OC(F)(F)F)cc3)CC2)cc1` [Example 97, 3-{4-[1-(trans-4-(4-Trifluoromethoxyphenylcarbamoyloxy)cyclohexyl)-3-(4-trifluoromethoxyphenyl)ureidomethyl]benzoylamino}propionic acid]: 1650 nM; for `O=C(Nc1nn[nH]n1)c1ccc(CN(C(=O)NCc2cc(Cl)cc(Cl)c2)c2ccc(C3CCCCC3)cc2)cc1` [Example 397, 4-[1-(4-Cyclohexylphenyl)-3-(3,5-dichlorobenzyl)ureidomethyl]-N-(2H-tetrazol-5-yl)benzamide]: 120 nM; for `CN(c1ccccc1)S(=O)(=O)c1cccc(NC(=O)N(Cc2ccc(C(=O)Nc3nn[nH]n3)cc2)c2ccc(C3CCCCC3)cc2)c1` [Example 266, 4-{1-(4-Cyclohexylphenyl)-3-[3-(methylphenylsulfamoyl)phenyl]ureidomethyl}-N-(2H-tetrazol-5-yl)benzamide]: 15 nM. On the same count and under the same terms, then `O=C(Nc1nn[nH]n1)c1ccc(CN(C(=O)Nc2ccc3c(c2)C(F)(F)OC(F)(F)O3)c2ccc(C3CCCCC3)cc2)cc1` [Example 366, 4-[1-(4-Cyclohexylphenyl)-3-(2,2,4,4-tetrafluoro-4H-benzo[1,3]dioxin-6-yl)ureidomethyl]-N-(2H-tetrazol-5-yl)benzamide], with 12 nM. As for `CC(NC(=O)N(Cc1ccc(C(=O)Nc2nn[nH]n2)cc1)c1ccc(C2CCCCC2)cc1)c1ccc(Cl)cc1` (stereo not drawn) [Example 336, 4-[3-[1-(4-Chlorophenyl)ethyl]-1-(4-cyclohexylphenyl)ureidomethyl]-N-(2H-tetrazol-5-yl)benzamide], the IC50 stood at 58 nM.

For `CC(C)c1ccc(NC(=O)N(Cc2ccc(C(=O)NCCC(=O)O)cc2)C2CCC(C(C)(C)C)CC2)cc1` (stereo not drawn) [Example 56, 3-{4-[1-(4-tert-Butylcyclohexyl)-3-(4-isopropylphenyl)ureidomethyl]benzoylamino}propionic acid], the IC50 is 59 nM.

In the case of `CC(C)(C)c1ccc(N(Cc2ccc(C(=O)Nc3nn[nH]n3)cc2)C(=O)Nc2cc(Cl)cc(Cl)c2)cc1` [Example 333, 4-[1-(4-tert-Butylphenyl)-3-(3,5-dichlorophenyl)ureidomethyl]-N-(2H-tetrazol-5-yl)benzamide], the IC50 was 26 nM.

In the case of `CC(C)(C)C1CCC(N(Cc2ccc(C(=O)Nc3nn[nH]n3)cc2)C(=O)Cc2cccc(OC(F)(F)F)c2)CC1` (stereo not drawn) [Example 543, 4-({(4-tert-Butylcyclohexyl)-[2-(3-trifluoromethoxyphenyl)acetyl]amino}methyl)-N-(2H-tetrazol-5-yl)benzamide], the IC50 came out at 201 nM.

With `CC(C)N1C(=O)c2ccc(NC(=O)N(Cc3ccc(C(=O)Nc4nn[nH]n4)cc3)c3ccc(C4CCCCC4)cc3)cc2C1=O` [Example 627, 4-[1-(4-Cyclohexylphenyl)-3-(N-isopropylphthalimid-4-yl)ureidomethyl]-N-(2H-tetrazol-5-yl)benzamide], the IC50 was found to be 8 nM. On the same count and under the same terms, then `O=C(Nc1nn[nH]n1)c1ccc(CN(C(=O)Cc2ccc(F)cc2F)c2ccc(C3CCCCC3)cc2)cc1` [Example 496, 4-({(4-Cyclohexylphenyl)-[2-(2,4-difluorophenyl)acetyl]amino}methyl)-N-(2H-tetrazol-5-yl)benzamide], with 566 nM.

`O=C(Nc1nn[nH]n1)c1ccc(CN(C(=O)Nc2cccc([N+](=O)[O-])c2)c2ccc(C3CCCCC3)cc2)cc1` [Example 286, 4-[1-(4-Cyclohexylphenyl)-3-(3-nitrophenyl)ureidomethyl]-N-(2H-tetrazol-5-yl)benzamide]: the IC50 was 26 nM.

For `O=C(O)CCNC(=O)c1ccc(CN(NC(=O)c2ccc(OC(F)(F)F)cc2)C2C[C@@H]3C[C@H]2C2CCCC23)cc1` (stereo partly drawn) [Example 425, 3-{4-[N-(Octahydro-4,7-methanoinden-5-yl)-N′-(4-trifluoromethoxybenzoyl)hydrazinomethyl]benzoylamino}propionic acid], the IC50 was 220 nM. Take `CCC(C)(C)C1CCC(N(Cc2ccc(C(=O)NCCC(=O)O)cc2)C(=O)Nc2ccc(OC(F)(F)F)cc2)CC1` (stereo not drawn) [Example 87, 3-{4-[1-[4-(1,1-Dimethylpropyl)cyclohexyl]-3-(4-trifluoromethoxyphenyl)ureidomethyl]benzoylamino}propionic acid]: the IC50 came out at 43 nM. The same measure, in the same setting: the same measure for `CC(C)(C)c1ccc(N(Cc2ccc(C(=O)Nc3nn[nH]n3)cc2)C(=O)Nc2ccc(OC(F)(F)F)c(S(C)(=O)=O)c2)cc1` [Example 312, 4-[1-(4-tert-Butylphenyl)-3-(3-methylsulfonyl-4-trifluoromethoxyphenyl)ureidomethyl]-N-(2H-tetrazol-5-yl)benzamide]: 46 nM.

As for `CS(=O)(=O)c1cc(NC(=O)N(Cc2ccc(C(=O)Nc3nn[nH]n3)cc2)c2ccc(C3CCCCC3)cc2)cc(S(C)(=O)=O)c1` [Example 321, 4-[3-(3,5-Bis(methylsulfonyl)phenyl)-1-(4-cyclohexylphenyl)ureidomethyl]-N-(2H-tetrazol-5-yl)benzamide], the IC50 came to 960 nM.

For the compound `CC(C)(C)C1CCC(N(Cc2ccc(C(=O)NCCC(=O)O)cc2)C(=O)NCCc2cccs2)CC1` (stereo not drawn) [Example 23, 3-{4-[1-(4-tert-Butylcyclohexyl)-3-(2-thiophen-2-ylethyl)ureidomethyl]benzoylamino}propionic acid], the IC50 is 1800 nM. As for `O=C(Nc1nn[nH]n1)c1ccc(CN(C(=O)NCc2ccc(OC(F)(F)F)cc2)c2ccc(C3CCCCC3)cc2)cc1` [Example 347, 4-[1-(4-Cyclohexylphenyl)-3-(4-trifluoromethoxybenzyl)ureidomethyl]-N-(2H-tetrazol-5-yl)benzamide], the IC50 was found to be 79 nM.

In the case of `O=C(Nc1nn[nH]n1)c1ccc(CN(C(=O)Nc2cc(Cl)sc2Cl)c2ccc(C3CCCCC3)cc2)cc1` [Example 335, 4-[1-(4-Cyclohexylphenyl)-3-(2,5-dichlorothiophen-3-yl)ureidomethyl]-N-(2H-tetrazol-5-yl)benzamide], the IC50 was 1090 nM. For `CC(C)(C)[C@H]1CC[C@H](N(Cc2ccc(C(=O)NCCC(=O)NO)cc2)C(=O)Nc2ccc(OC(F)(F)F)cc2)CC1` [Example 376, 4-[1-(trans-4-tert-Butylcyclohexyl)-3-(4-trifluoromethoxyphenyl)ureidomethyl]-N-(2-hydroxycarbamoylethyl)benzamide], the IC50 was determined as 391 nM.

The assay is the same for the next values; noted with them: Glu Bd Assay (III) IC50 (nM), BHK cell membranes, WGA SPA beads, 125I-glucagon.
For the compound `CC(C)(C)[C@H]1CC[C@H](N(Cc2ccc(C(=O)NCC(=O)NO)cc2)C(=O)Nc2ccc(OC(F)(F)F)cc2)CC1` [Example 377, 4-[1-(trans-4-tert-Butylcyclohexyl)-3-(4-trifluoromethoxyphenyl)ureidomethyl]-N-hydroxycarbamomethyl-benzamide], the IC50 stood at 2960 nM.

Still in this assay, the particulars now being: value printed in the text of Example 315; read-out: Glu bd assay III.
For the compound `CS(=O)(=O)c1cc(NC(=O)N(Cc2ccc(C(=O)Nc3nn[nH]n3)cc2)c2ccc(C3=CCCCC3)cc2)ccc1OC(F)(F)F` [Example 315, 4-[1-(4-Cyclohex-1-enylphenyl)-3-(3-methylsulfonyl-4-trifluoromethoxyphenyl)ureidomethyl]-N-(2H-tetrazol-5-yl)benzamide], the IC50 amounted to 22 nM.

The values are drawn from patent US6875760B2 (Novo Nordisk A/S, priority 1999, dated 2005).
